Laboratory results as given in US5399580A, “Therapeutic nucleosides-uses” (Burroughs Wellcome Co., priority 1993, dated 1995).
Where two headings read alike, the source gives them in different places.

What was measured:
[1] = test system: Human cytomegalovirus (HCMV); experiment: Anti-HCMV plaque reduction assay in MRC5 cells; assay type: cell-based; settings: Human betaherpesvirus 5, read-out: IC50, anti-HCMV activity (50% inhibitory concentration)
Procedure: Human cytomegalovirus (HCMV) is assayed in monolayers of MRC5 cells (human embryonic lung) in multiwell trays. Activity of compounds is determined in the plaque reduction assay, in which a cell monolayer is infected with a suspension of HCMV. A range of concentrations of the compound to be tested (of known molarity) is then incorporated into the carboxymethyl cellulose overlay. Plaque numbers of each concentration are expressed as percentage of the control and a dose-response curve is drawn. From this curve the 50% inhibitory concentration (IC50) is estimated.

T cells (Molt 4) = experiment: Inhibition of the growth of T cells (Molt 4); assay type: cell-based; settings: Homo sapiens, read-out: I50, growth of Molt 4 cells
Procedure: (§1) The compounds of the invention were tested for inhibition of the growth of T cells (Molt 4) and B cells (IM9) by the method of Averett, D., Journal of Virological Methods, 23, (1989), 263-276.

B cells (IM9) = experiment: Inhibition of the growth of B cells (IM9); assay type: cell-based; settings: Homo sapiens, IM-9; read-out: I50, growth of IM9 cells
Procedure: as §1

[2] = test system: HBV (HepG2 2.2.15, P5A cell line); experiment: Anti-HBV assay: HBV DNA in supernatants of HBV-producing cells, immunoaffinity capture, PCR and hybrid-capture detection; assay type: cell-based, Hepatitis B virus; settings: HepG2 2.2.15, P5A cells, compound on days 1, 3, 5, 7
Procedure: Anti-HBV activity of compounds of formula (I) and (I-1) was determined with a high-capacity assay for assessing efficacy. Supernatants from growing HBV-producing cells (HepG2 2.2.15, P5A cell line) in 96-well plates are applied to microtiter plate wells which have been coated with a specific monoclonal antibody to HBV surface antigen (HBsAg). Virus particles present in the supernatants bind to the antibody and remain immobilized while other debris is removed by washing. These virus particles are then denatured to release HBV DNA strands which are subsequently amplified by the polymerase chain reaction and detected with a colorimetric hybrid-capture assay. Quantitation is achieved through fitting of a standard curve to dilutions of a cell supernatant with known HBV DNA content. By comparing HBV DNA levels of untreated control cell supernatants with supernatants containing a compound of formula (I) or (I-1), a measure of anti-HBV effectiveness is obtained.
HBV producer cells, 2500 cells/well, were seeded in 96-well culture dishes in RPMI/10% fetal bovine serum/2 mM glutamine (RPMI/10/2:). […] Twenty-five uL HBV standard media dilutions in RPMI/10/2 were added to 2 rows of wells to serve as an internal standard curve for quantitation, and the plates were sealed and incubated at 4° C. overnight. […]
Polymerase chain reaction (Saiki, R. K. et al., Science, 239 (4839) 487-91 (1988)) was carried out on 5uL samples, using a Perkin Elmer PCR kit. […] Primers were chosen from conserved regions in the HBV genome, as determined by alignment of several sequences. […]
PCR products were detected with horse radish peroxidase-labeled oligonucleotide probes (Synthecell Corp., Rockville, Md. 20850), which hybridize to biotinylated strands of denatured PCR products directly in streptavidin-coated microtiter plate wells, using essentially the method of Holodiniy, M. et al., Bio Techniques, 12 (1) 37-39 (1992). […] Quantities of HBV DNA present in the original samples were calculated by comparison with standards. […]

[3] = Hepatitis B virus, HepG2 2.2.15, read-out: IC50 (median inhibitory concentration, 50 percent decrease in HBV DNA), approximate IC50

Row | Structure (SMILES) | IC50 [1] [µM] | IC50 (T cells (Molt 4)) [µM] | IC50 (B cells (IM9)) [µM] | IC50 [2, 3] [µM] | IC50 ([2]; read-out: IC50 (median inhibitory concentration, 50 percent decrease in HBV DNA), approximate IC50) [µM]
1 | OC[C@@H]1C[C@H](n2c(Br)nc3cc(Cl)c(Cl)cc32)[C@@H](O)[C@H]1O (relative stereo) [Ex. 4, (±)-(1R*,2S*,3S*,5S*)-5-(2-Bromo-5,6-dichloro-1H-benzimidazol-1-yl)-3-(hydroxymethyl)-1,2-cyclopentanediol] | 1.9 | 39 | 48 |  | 
2 | OC[C@@H]1C[C@@H](O)[C@H](n2c(Br)nc3cc(Cl)c(Cl)cc32)C1 (relative stereo) [Ex. 13, (±)-(1R*,2R*,4S*)-2-(2-Bromo-5,6-dichloro-1H-benzimidazol-1-yl)-4-(hydroxymethyl)cyclo-pentanol] | 1 | 32 | 88 | 5 | 
3 | OC[C@@H]1C[C@H](n2c(Br)nc3cc(Cl)c(Cl)cc32)[C@@H](O)[C@H]1O [Ex. 69, (1R,2S,3S,5S)-5-(2-Bromo-5,6-dichloro-1H-benzimidazol-1-yl)-3-(hydroxymethyl)-1,2-cyclopentanediol] |  | 29 | 35 | 0.72 | 1.3
